# Data reported in patent US20050197350A1, “Novel quinoline, tetrahydroquinazoline, and pyrimidine derivatives and methods of treatment related to the use thereof” (TAISHO PHARMACEUTICAL CO., LTD., priority 2003, published 2005).
# Structures can show the parent of a compound that is named as a salt.
# Molecular target: MCH receptor (Homo sapiens, UniProt Q99705)
# Assay: High throughput functional screening FLIPR/FDSS6000 (intracellular Ca2+ evoked by MCH)
# Format: cell-based
# Conditions: FLIPR/FDSS, antagonist activity vs 50 nM MCH; class by percent of control at 10^−7 M or IC50; table after the classification; read-out: class
# In short: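 For antagonist testing, compound-treated cells (30 min, 37 °C) were stimulated with 50 nM MCH and intracellular Ca2+ followed by Fluo4 fluorescence on FLIPR/FDSS6000. Receptor was a constitutively active, non-endogenous MCH receptor; dye loading 4 μM Fluo4-AM, 1 h, 37 °C.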
row,IC50 [nM],SMILES
1,< 50,"Cc1cc(N[C@H]2CC[C@@H](NC(=O)C3c4ccccc4Oc4ccccc43)CC2)nc2ccccc12 [Example 3082, 9H-Xanthene-9-carboxylic acid-[cis-4-(4-methyl-quinolin-2-ylamino)-cyclohexyl]-amide hydrochloride]"
2,< 50,"Cc1cc(N[C@H]2CC[C@@H](NC(=O)c3ccc(Br)o3)CC2)nc2ccccc12 [Example 3083, 5-Bromo-furan-2-carboxylic acid-[cis-4-(4-methyl-quinolin-2-ylamino)-cyclohexyl]-amide hydrochloride]"
3,< 50,"Cc1cccc(OCC(=O)N[C@H]2CC[C@@H](Nc3cc(C)c4ccccc4n3)CC2)c1 [Example 3084, N-[cis-4-(4-Methyl-quinolin-2-ylamino)-cyclohexyl]-2-m-tolyloxy-acetamide hydrochloride]"
4,< 50,"Cc1cc(N[C@H]2CC[C@@H](NC(=O)c3ccc4nonc4c3)CC2)nc2ccccc12 [Example 3085, Benzo[2,1,3]oxadiazole-5-carboxylic acid-[cis-4-(4-methyl-quinolin-2-ylamino)-cyclohexyl]-amide hydrochloride]"
5,< 50,"Cc1cc(N[C@H]2CC[C@@H](NC(=O)c3cccc(Br)c3)CC2)nc2ccccc12 [Example 3086, 3-Bromo-N-[cis-4-(4-methyl-quinolin-2-ylamino)-cyclohexyl]-benzamide hydrochloride]"
6,< 50,"Cc1cc(N[C@H]2CC[C@@H](NC(=O)c3cccc(C#N)c3)CC2)nc2ccccc12 [Example 3087, 3-Cyano-N-[cis-4-(4-methyl-quinolin-2-ylamino)-cyclohexyl]-benzamide hydrochloride]"
7,< 50,"Cc1cc(N[C@H]2CC[C@@H](NC(=O)c3cccc(C(F)(F)F)c3)CC2)nc2ccccc12 [Example 3088, N-[cis-4-(4-Methyl-quinolin-2-ylamino)-cyclohexyl]-3-trifluoromethyl-benzamide hydrochloride]"
8,< 50,"Cc1cc(N[C@H]2CC[C@@H](NC(=O)C(c3ccccc3)c3ccccc3)CC2)nc2ccccc12 [Example 3089, N-[cis-4-(4-Methyl-quinolin-2-ylamino)-cyclohexyl]-2,2-diphenyl-acetamide hydrochloride]"
9,< 50,"Cc1cc(N[C@H]2CC[C@@H](NC(=O)c3cccnc3Oc3ccc(F)cc3)CC2)nc2ccccc12 [Example 3090, 2-(4-Fluoro-phenoxy)-N-[cis-4-(4-methyl-quinolin-2-ylamino)-cyclohexyl]-nicotinamide hydrochloride]"
10,< 50,"Cc1cc(N[C@H]2CC[C@@H](NC(=O)c3cccnc3Oc3ccc(F)c(F)c3)CC2)nc2ccccc12 [Example 3091, 2-(3,4-Difluoro-phenoxy)-N-[cis-4-(4-methyl-quinolin-2-ylamino)-cyclohexyl]-nicotinamide hydrochloride]"
11,< 50,"Cc1ccc(Oc2ncccc2C(=O)N[C@H]2CC[C@@H](Nc3cc(C)c4ccccc4n3)CC2)cc1 [Example 3092, N-[cis-4-(4-Methyl-quinolin-2-ylamino)-cyclohexyl]-2-p-tolyloxy-nicotinamide hydrochloride]"
12,< 50,"Cc1cc(N[C@H]2CC[C@@H](NC(=O)c3cccnc3Oc3ccc(Cl)cc3)CC2)nc2ccccc12 [Example 3093, 2-(4-Chloro-phenoxy)-N-[cis-4-(4-methyl-quinolin-2-ylamino)-cyclohexyl]-nicotinamide hydrochloride]"
13,< 50,"Cc1cc(N[C@H]2CC[C@@H](NC(=O)c3cccnc3Oc3ccc(Br)cc3)CC2)nc2ccccc12 [Example 3094, 2-(4-Bromo-phenoxy)-N-[cis-4-(4-methyl-quinolin-2-ylamino)-cyclohexyl]-nicotinamide hydrochloride]"
14,< 50,"COc1ccc(Oc2ncccc2C(=O)N[C@H]2CC[C@@H](Nc3cc(C)c4ccccc4n3)CC2)cc1 [Example 3095, 2-(4-Methoxy-phenoxy)-N-[cis-4-(4-methyl-quinolin-2-ylamino)-cyclohexyl]-nicotinamide hydrochloride]"
15,< 50,"Cc1cc(N[C@H]2CC[C@@H](NC(=O)c3cccnc3Oc3ccc(F)c(Cl)c3)CC2)nc2ccccc12 [Example 3096, 2-(3-Chloro-4-fluoro-phenoxy)-N-[cis-4-(4-methyl-quinolin-2-ylamino)-cyclohexyl]-nicotinamide hydrochloride]"
16,< 50,"Cc1cccc(Oc2ncccc2C(=O)N[C@H]2CC[C@@H](Nc3cc(C)c4ccccc4n3)CC2)c1 [Example 3097, N-[cis-4-(4-Methylquinolin-2-ylamino)-cyclohexyl]-2-m-tolyloxy-nicotinamide hydrochloride]"
17,< 50,"COc1cccc(OCC(=O)N[C@H]2CC[C@@H](Nc3cc(C)c4ccccc4n3)CC2)c1 [Example 3098, 2-(3-Methoxy-phenoxy)-N-[cis-4-(4-methyl-quinolin-2-ylamino)-cyclohexyl]-acetamide hydrochloride]"

row,IC50 [nM],SMILES
1,< 50,"Cc1cc(N[C@H]2CC[C@@H](NC(=O)COc3cccc(Cl)c3)CC2)nc2ccccc12 [Example 3099, 2-(3-Chloro-phenoxy)-N-[cis-4-(4-methyl-quinolin-2-ylamino)-cyclohexyl]-acetamide hydrochloride]"
2,< 50,"Cc1cc(N[C@H]2CC[C@@H](NC(=O)COc3ccc(F)c(Cl)c3)CC2)nc2ccccc12 [Example 3100, 2-(3-Chloro-4-fluoro-phenoxy)-N-[cis-4-(4-methyl-quinolin-2-ylamino)-cyclohexyl]-acetamide hydrochloride]"
3,< 50,"Cc1cc(N[C@H]2CC[C@@H](NC(=O)COc3ccc(Cl)c(Cl)c3)CC2)nc2ccccc12 [Example 3101, 2-(3,4-Dichloro-phenoxy)-N-[cis-4-(4-methyl-quinolin-2-ylamino)-cyclohexyl]-acetamide hydrochloride]"
4,50 to 200,"Cc1cc(N[C@H]2CC[C@@H](NC(=O)CNc3ccc(Cl)c(Cl)c3)CC2)nc2ccccc12 [Example 3103, 2-(3,4-Dichloro-phenylamino)-N-[cis-4-(4-methyl-quinolin-2-ylamino)-cyclohexyl]-acetamide dihydrochloride]"
5,50 to 200,"Cc1cc(N[C@H]2CC[C@@H](CNC(=O)c3ccc(F)c(F)c3)CC2)nc2ccccc12 [Example 3104, 3,4-Difluoro-N-[cis-4-(4-methyl-quinolin-2-ylamino)-cyclohexylmethyl]-benzamide hydrochloride]"
6,50 to 200,"Cc1cc(N[C@H]2CC[C@@H](CNC(=O)c3cccnc3Oc3ccccc3)CC2)nc2ccccc12 [Example 3105, N-[cis-4-(4-Methylquinolin-2-ylamino)-cyclohexylmethyl]-2-phenoxy-nicotinamide hydrochloride]"
7,< 50,"Cc1cc(N[C@H]2CC[C@@H](CNC(=O)Nc3cccc(Cl)c3Cl)CC2)nc2ccccc12 [Example 3106, 1-(2,3-Dichloro-phenyl)-3-[cis-4-(4-methyl-quinolin-2-ylamino)-cyclohexylmethyl]-urea hydrochloride]"
8,< 50,"CN(C)c1nc(N[C@H]2CC[C@@H](NC(=O)c3cccnc3Oc3ccccc3)CC2)nc2c1CCCC2 [Example 3107, N-[cis-4-(4-Dimethylamino-5,6,7,8-tetrahydro-quinazolin-2-ylamino)-cyclohexyl]-2-phenoxy-nicotinamide hydrochloride]"
9,< 50,"CN(C)c1nc(N[C@H]2CC[C@@H](NC(=O)c3ccc(F)c(Cl)c3)CC2)nc2c1CCCC2 [Example 3108, 3-Chloro-N-[cis-4-(4-dimethylamino-5,6,7,8-tetrahydro-quinazolin-2-ylamino)-cyclohexyl]-4-fluoro-benzamide hydrochloride]"
10,< 50,"Cc1cc(C(=O)N[C@H]2CC[C@@H](Nc3nc4c(c(N(C)C)n3)CCCC4)CC2)ccc1F [Example 3109, N-[cis-4-(4-Dimethylamino-5,6,7,8-tetrahydro-quinazolin-2-ylamino)-cyclohexyl]-4-fluoro-3-methyl-benzamide hydrochloride]"
11,< 50,"COc1cc(OC)cc(C(=O)N[C@H]2CC[C@@H](Nc3nc4c(c(N(C)C)n3)CCCC4)CC2)c1 [Example 3110, N-[cis-4-(4-Dimethylamino-5,6,7,8-tetrahydro-quinazolin-2-ylamino)-cyclohexyl]-3,5-dimethoxy-benzamide hydrochloride]"
12,< 50,"CN(C)c1nc(N[C@H]2CC[C@@H](NC(=O)c3ccc4nonc4c3)CC2)nc2c1CCCC2 [Example 3111, Benzo[2,1,3]oxadiazole-5-carboxylic acid-[cis-4-(4-dimethylamino-5,6,7,8-tetrahydro-quinazolin-2-ylamino)-cyclohexyl]-amide hydrochloride]"
13,< 50,"CN(C)c1nc(N[C@H]2CC[C@@H](NC(=O)c3cccc([N+](=O)[O-])c3)CC2)nc2c1CCCC2 [Example 3112, N-[cis-4-(4-Dimethylamino-5,6,7,8-tetrahydro-quinazolin-2-ylamino)-cyclohexyl]-3-nitro-benzamide hydrochloride]"
14,> 200,"CN(C)c1nc(N[C@H]2CC[C@@H](CNC(=O)c3cccnc3Oc3ccccc3)CC2)nc2c1CCCC2 [Example 3113, N-[cis-4-(4-Dimethylamino-5,6,7,8-tetrahydro-quinazolin-2-ylamino)-cyclohexylmethyl]-2-phenoxy-nicotinamide hydrochloride]"
15,< 50,"CN(C)c1cc(N[C@H]2CC[C@@H](NC(=O)c3cccnc3Oc3ccccc3)CC2)nc2ccccc12 [Example 3114, N-[cis-4-(4-Dimethylamino-quinolin-2-ylamino)-cyclohexyl]-2-phenoxy-nicotinamide hydrochloride]"
16,< 50,"O=C(N[C@H]1CC[C@@H](Nc2cc(Cl)c3ccccc3n2)CC1)c1cccnc1Oc1ccccc1 [Example 3115, N-[cis-4-(4-Chloro-quinolin-2-ylamino)-cyclohexyl]-2-phenoxy-nicotinamide hydrochloride]"
17,> 200,"COc1cc(N[C@H]2CC[C@@H](NC(=O)c3ccc(F)c(F)c3)CC2)nc2ccccc12 [Example 3116, 3,4-Difluoro-N-[cis-4-(4-methoxy-quinolin-2-ylamino)-cyclohexyl]-benzamide hydrochloride]"
